We go through eleven compounds from patent publication EP0044955B1, “Liquid herbicide mixtures” (BASF Aktiengesellschaft, priority 1980, dated 1982).

Common to all, as to type: physicochemical
The nature of data set [1]: Water solubility of the solvents. Particulars: for H2O-Löslichkeit des Lösungsmittels (%) Gew.-% Lösungs-mittel in Wasser: Tabelle 1 solvents; for Wasserlöslichkeit der Lösungsmittel (%): Säureamide of Tabelle 4. The source says:
(§1) Beispiele von Säureamiden sind in der Tabelle 4 zusammengefaßt. Bestimmt wurden die Löslichkeiten der Substanzen 1 (Chloridazon) und 2 (Biscarbamat) wie sie in Tabelle 1 aufgeführt sind, sowie die Wasserlöslichkeit der Lösungsmittel.

Data set [2] in a line: Phenmedipham degradation in formulations at various temperatures. An excerpt:
Es wurde der Abbau des Phenmedipham bei verschiedenen Temperaturen verfolgt.

Data set [3] in a line: Stability of Phenmedipham in solvents, 24 h storage, HPLC. Particulars: 24 Std., read-out: Restwirkstoff an Phenmedipham Wirkstoffgehalt. The method, then: In der folgenden Tabelle sind die Stabilitätsuntersuchungen von Phenmedipham bei verschiedenenen Temperaturen und konstanter Zeit zusammengefaßt. Es wurden 500 mg technischer Wirkstoff in 25 ml Lösungsmittel gelöst, die Lösungen bei der entsprechend gewählten Temperatur 24 Stunden gelagert und der Restwirkstoffgehalt analytisch mit Hilfe der HPLC-Methode bestimmt.

Data set [4] in a line: Active ingredient stability in solvents (0,002 molar, HPLC). Particulars: for remaining at 5 min, 2000 µM: Abbauzeit 5 min; for remaining at 20 min, 2000 µM: Abbauzeit 20 min; for remaining at 1 h, 2000 µM: Abbauzeit 60 min; for remaining at 7 min, 2000 µM: Abbauzeit 7 min; for remaining at 0.5 h, 2000 µM: Abbauzeit 30 min. The source says: In der Tabelle 2 wird die Wirkstoffstabilität der oben genannten Substanz 2 in verschiedenen Lösungsmitteln als Beispiel aufgeführt. […] Die Konzentration an Wirkstoff war bei diesen Untersuchungen 0,002 molar. Die Analyse wurde mit Hilfe der Hochdruckflüssigkeitschromatographie (HPLC) durchgeführt.

Data set [5] can be described thus: Solubility of Substanz 1 and Substanz 2 in solvents at room temperature.
Source text: as §1

[6] abbreviates: dimethylformamid (technisch), Dimethylformid (technisch), 50°C, read-out: Wirkstoffgehalt.
The mark [7] stands for this setting: dimethylformamid (technisch), Dimethylformid (technisch), 70°C, read-out: Wirkstoffgehalt.
Setting [8] is: n-methylpyrrolidon, N-Methylpyrrolidon (rein 0,05% H2O), 50°C, read-out: Wirkstoffgehalt.
Setting [9] is: n-methylpyrrolidone, N-Methylpyrrolidon (rein 0,05% H2O), 30°C, read-out: Wirkstoffgehalt.

Where two headings read alike, the source gives them in different places.

Take `O=C1CCCCC1` [Cyclohexanon, reference compound]: the “H2O-Löslichkeit des Lösungsmittels (%) Gew.-% Lösungs-mittel in Wasser” value in data set [1] is on record as 3-4%.
For `CC1=CC(=O)CC(C)(C)C1` [Isophoron, reference compound], the “H2O-Löslichkeit des Lösungsmittels (%) Gew.-% Lösungs-mittel in Wasser” value in data set [1] is reported as 1,2%.
In the case of `COC(=O)Nc1cccc(OC(=O)Nc2cccc(C)c2)c1` [Phenmedipham, 3-Methoxycarbonylaminophenyl-N-(3'-methyl-phenyl)-carbamat], the “Phenmedipham-Abbau Wirkstoffgehalt” value is given as 4,8% in data set [2] (formulation (g/l): 50 Phenmedipham, 150 Chloridazon, 200 Netzmittel, 50 Emulgiermittel, ad 1000 g Dimethylformamid, 50°C, 4 Wochen, 40320 min); 79,5% in data set [2] (formulation (g/l): 50 Phenmedipham, 150 Chloridazon, 200 Netzmittel, 50 Emulgiermittel, ad 1000 g Dimethylformamid, Rt, 4 Wochen, 40320 min); 30,8% in data set [2] (formulation (g/l): 167 Chloridazon, 83 Phenmedipham, 300 N-Methylpyrrolidon, 24 Morpholin, 100 Emulgiermittel, 326 Cyclohexanon-Destillationsrückstände (DE-PS 16 42 216, Beispiel 6/I), 50°C, 1 Stunde); 16,4% in data set [2] (formulation with N-Methylpyrrolidon and Morpholin (DE-PS 16 42 216, Beispiel 6/I), 50°C, 2 Stunden); 12,8% in data set [2] (formulation with N-Methylpyrrolidon and Morpholin (DE-PS 16 42 216, Beispiel 6/I), 50°C, 3 Stunden); 3,21% in data set [2] (formulation with N-Methylpyrrolidon and Morpholin (DE-PS 16 42 216, Beispiel 6/I), 70°C, 1 Stunde). The Wirkstoffgehalt entry in data set [2] (formulation with mixture of Dimethylformamid and Isophoron instead of Dimethylformamid alone, 4 Wochen, 50° C, 40320 min) is “ca. 60%”. In addition, the remaining at 24 h in data set [3] (2-äthylhexancarbonsäureamid, 2-Äthylhexancarbonsäureamid (Nr. 9 aus Tabelle 4), 50°C) is 98.1%; in data set [3] (2-äthylhexancarbonsäureamid, 2-Äthylhexancarbonsäureamid (Nr. 9 aus Tabelle 4), 70°C) it was 98%; in data set [3] (dimethylformamid, 50°C), 9.3%; in data set [3] (isophoron, 50°C), 99.3%; in data set [3] (isophoron, 70°C), 96.3%; in data set [3] (n,n-dipropylbuttersäureamid, N,N-Dipropylbuttersäureamid (Nr. 7 aus Tabelle 4), 50°C), 100%. In addition, the remaining at 24 h in data set [3] (n,n-dipropylbuttersäureamid, N,N-Dipropylbuttersäureamid (Nr. 7 aus Tabelle 4), 70°C) was 97.6%; in data set [3] (n,n-diäthyl-3-methyl-benzolcarbonsäureamid, N,N-Diäthyl-3-methyl-benzolcarbonsäureamid (Nr. 11 Tabelle 4), 50°C) it was 95.5%; in data set [3] (n,n-diäthyl-3-methyl-benzolcarbonsäureamid, N,N-Diäthyl-3-methyl-benzolcarbonsäureamid (Nr. 11 Tabelle 4), 70°C), 60%.
`Nc1cnn(-c2ccccc2)c(=O)c1Cl` [Substanz 1, 1-Phenyl-4-amino-5-chlor-pyridazon-(6), reference compound]: the Stabilität result in data set [4] (in the solvents of Tabelle 2) is on record as “keine Schwierigkeiten”.
Turning to `CCOC(=O)Nc1cccc(OC(=O)Nc2ccc(F)c(Cl)c2)c1` [Substanz 2, (3-Chlor-4-fluorphenyl)carbaminsäure-3(ethoxy-carbonyl)amino-phenylester], the “Löslichkeit in % (g Substanz in 100 g Lösung bei Raumtemperatur (RT 20°C))” value in data set [5] (in Cyclohexanon) is given as 35,0%; in data set [5] (in Dimethylformamid), 47,2%; in data set [5] (in Dimethylsulfoxid) it was 55,3%; in data set [5] (in Isophoron), 33,7%; in data set [5] (in N-Methylpyrrolidon), 30,8%. In addition, the “Löslichkeit in (%)” value in data set [5] (in Säureamid Nr. 1, Rt) is given as 39,9%; in data set [5] (in Säureamid Nr. 2, Rt), 37,0%; in data set [5] (in Säureamid Nr. 3, Rt) it was 43,8%; in data set [5] (in Säureamid Nr. 4, Rt), 45,4%; in data set [5] (in Säureamid Nr. 5, Rt), 41,6%; in data set [5] (in Säureamid Nr. 6, Rt), 49,0%. Besides, the “Löslichkeit in (%)” value was 38,8% in data set [5] (in Säureamid Nr. 7, Rt); 45,5% in data set [5] (in Säureamid Nr. 8, Rt); 29,1% in data set [5] (in Säureamid Nr. 9, Rt); 39,5% in data set [5] (in Säureamid Nr. 10, Rt); 29,4% in data set [5] (in Säureamid Nr. 11, Rt); 33,3% in data set [5] (in Säureamid Nr. 12, Rt). Moreover, the “Löslichkeit in (%)” value in data set [5] (in Säureamid Nr. 13, Rt) was 31,1%. For the same compound, the remaining at 5 min, 2000 µM came to 99.5% in data set [4] (setting [6]), 92.3% in data set [4] (setting [8]) and 100% in data set [4] (setting [9]). In addition, the remaining at 20 min, 2000 µM in data set [4] (setting [6]) turned out to be 98.1%; in data set [4] (setting [8]) it was 76.5%. The remaining at 1 h, 2000 µM in data set [4] (setting [6]) stood at 95.5%; in data set [4] (setting [8]), 52.8%. Also, the remaining at 7 min, 2000 µM in data set [4] (setting [7]) worked out at 98.5%; in data set [4] (dimethylformamid (technisch), Dimethylformid (technisch), 80°C, read-out: Wirkstoffgehalt), 85.4%. Also, the remaining at 0.5 h, 2000 µM in data set [4] (setting [7]) is 87.2%; in data set [4] (setting [9]), 96.7%. Further, the remaining at 1.05 h, 2000 µM in data set [4] (dimethylformamid (technisch), Dimethylformid (technisch), 70°C, Abbauzeit 63 min, read-out: Wirkstoffgehalt) was 57.4%. For the same compound, the remaining at 23 min, 2000 µM in data set [4] (dimethylformamid (technisch), Dimethylformid (technisch), 80°C, Abbauzeit 23 min, read-out: Wirkstoffgehalt) was found to be 54.7%. Also, the remaining at 37 min, 2000 µM in data set [4] (dimethylformamid (technisch), Dimethylformid (technisch), 80°C, Abbauzeit 37 min, read-out: Wirkstoffgehalt) was 32.9%. Further, the remaining at 24 h, 2000 µM in data set [4] (isophoron, 80°C, Abbauzeit 24 Std., read-out: Wirkstoffgehalt) is 93%. Further, in data set [4] (n-methylpyrrolidone, N-Methylpyrrolidon (rein 0,05% H2O), 30°C, Abbauzeit 210 min, read-out: Wirkstoffgehalt), the remaining at 3.5 h, 2000 µM is 76.3%.
As to `CCCC(=O)N(CCC)CCC` [compound 7], in data set [1], the “Wasserlöslichkeit der Lösungsmittel (%)” value was 1,5%.
On to `CCCN(CCC)C(=O)C(C)C` [compound 8], for which the “Wasserlöslichkeit der Lösungsmittel (%)” value in data set [1] is 1,6%.
Still for that read-out and setting: the result for `CCCCC(CC)C(=O)N(C)C` (centres unmarked) [compound 9] reads 1,5%; that for `CCN(CC)C(=O)c1ccccc1` [compound 10], 3,7%; that for `CCN(CC)C(=O)c1cccc(C)c1` [compound 11], 2,2%.
Still for that read-out and setting: the result for `CCCN(CCC)C(=O)c1ccccc1` [compound 12] reads 0,5%.
